In ChEMBL document CHEMBL1159264, “Aplysillin A, a thrombin receptor antagonist from the marine sponge Aplysina fistularis fulva” (J Nat Prod, 1995):

Biological target: T1, Proteinase-activated receptor 1 (Homo sapiens, UniProt P25116)
T1 sequence (P25116 whole entry): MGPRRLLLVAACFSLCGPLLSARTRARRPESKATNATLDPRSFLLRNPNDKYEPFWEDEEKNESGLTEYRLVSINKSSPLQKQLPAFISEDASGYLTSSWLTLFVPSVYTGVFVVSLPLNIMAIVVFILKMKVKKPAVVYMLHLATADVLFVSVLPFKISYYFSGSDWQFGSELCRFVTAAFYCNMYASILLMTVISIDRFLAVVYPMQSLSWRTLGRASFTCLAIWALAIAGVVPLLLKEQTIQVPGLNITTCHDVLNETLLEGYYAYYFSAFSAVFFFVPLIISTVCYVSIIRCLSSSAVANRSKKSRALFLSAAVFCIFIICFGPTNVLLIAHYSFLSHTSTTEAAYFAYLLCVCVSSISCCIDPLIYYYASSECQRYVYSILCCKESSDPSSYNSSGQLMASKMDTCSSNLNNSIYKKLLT
Experiment: Displacement of [125I]thrombin from thrombin receptor in human platelet membrane
Format: cell membranes

- IC50: 20 µM
Structure (SMILES): O=S(=O)(O)OC(=C\c1cc(O)c(O)c(Br)c1)/C(=C\c1ccc(O)c(Br)c1)OS(=O)(=O)O [APLYSIILLIN A]
